System: KRAS G12V dependent lung adenocarcinoma cell line, NCI-H441
Assay: Cellular pERK (Thr202/Tyr204) FRET/HTRF assay
Type: cell-based
Details: Homo sapiens
Outline: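 Read-out is a wash-free FRET sandwich immunoassay for endogenous ERK1/2 phosphorylated on Thr202/Tyr204. Signal was measured in NCI-H441 lung adenocarcinoma cells after 1 hr compound exposure at 37 °C. IC50 values come from fitted concentration-response curves.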

[1] = NCI-H441, pERK HTRF, NCI-H441 cells (KRAS G12V)
[2] = NCI-H441, cellular pERK (Thr202/Tyr204) HTRF, NCI-H441 cells

SMILES	IC50 [1] [µM]	IC50 [2] [µM]
[2H]C([2H])(Oc1nc(N2CCCC[C@H]3[C@H](F)[C@H]32)c2cnc(-c3cncc4ccc(F)c(Cl)c34)c(F)c2n1)[C@@]12CCCN1C[C@H](F)C2 [Example 85, 7-(5-Chloro-6-fluoroisoquinolin-4-yl)-8-fluoro-4-((1S,7R,8S)-8-fluoro-2-azabicyclo[5.1.0]octan-2-yl)-2-(((2R,7aS)-2-fluorotetrahydro-1H-pyrrolizin-7a(5H)-yl)methoxy-d2)pyrido[4,3-d]pyrimidine]	0.05 to 0.5	–
[2H]C([2H])([2H])Oc1c(F)ccc2cccc(-c3ncc4c(N5CCCO[C@H]6[C@H](F)[C@H]65)nc(OC([2H])([2H])[C@@]56CCCN5C[C@H](F)C6)nc4c3F)c12 [Example 86, (1R,7S,8R)-8-Fluoro-6-(8-fluoro-7-(7-fluoro-8-(methoxy-d3)naphthalen-1-yl)-2-(((2R,7aS)-2-fluorotetrahydro-1H-pyrrolizin-7a(5H)-yl)methoxy-d2)pyrido[4,3-d]pyrimidin-4-yl)-2-oxa-6-azabicyclo[5.1.0]octane]	< 0.05	–
[2H]C([2H])(F)Oc1c(F)c(F)cc2cc(N)cc(-c3ncc4c(N5CCOC[C@H]6[C@H](F)[C@H]65)nc(OC([2H])([2H])[C@@]56CCCN5C[C@H](F)C6)nc4c3F)c12 [Example 88, 6,7-Difluoro-4-(8-fluoro-4-((1S,7S,8S)-8-fluoro-5-oxa-2-azabicyclo[5.1.0]octan-2-yl)-2-(((2R,7aS)-2-fluorotetrahydro-1H-pyrrolizin-7a(5H)-yl)methoxy-d2)pyrido[4,3-d]pyrimidin-7-yl)-5-(fluoromethoxy-d2)naphthalen-2-amine]	< 0.05	–
[2H]C([2H])(Oc1nc(N2CCCO[C@H]3[C@H](F)[C@H]32)c2cnc(-c3cccc4ccc(F)c(OCF)c34)c(F)c2n1)[C@@]12CCCN1C[C@H](F)C2 [Example 92, (1R,7S,8R)-8-Fluoro-6-(8-fluoro-7-(7-fluoro-8-(fluoromethoxy)naphthalen-1-yl)-2-(((2R,7aS)-2-fluorotetrahydro-1H-pyrrolizin-7a(5H)-yl)methoxy-d2)pyrido[4,3-d]pyrimidin-4-yl)-2-oxa-6-azabicyclo[5.1.0]octane]	< 0.05	–
[2H]C([2H])(Oc1nc(N2CCOC[C@H]3[C@H](F)[C@H]32)c2cnc(-c3cc(N)cc4c(F)c(F)c(F)c(C#C)c34)c(F)c2n1)[C@@]12CCCN1C[C@H](F)C2 [Example 93, 5-Ethynyl-6,7,8-trifluoro-4-(8-fluoro-4-((1S,7S,8S)-8-fluoro-5-oxa-2-azabicyclo[5.1.0]octan-2-yl)-2-(((2R,7aS)-2-fluorotetrahydro-1H-pyrrolizin-7a(5H)-yl)methoxy-d2)pyrido[4,3-d]pyrimidin-7-yl)naphthalen-2-amine]	< 0.05	–
[2H]C([2H])(Oc1nc(N2CCC=C[C@H]3[C@H](F)[C@H]32)c2cnc(-c3cc(N)cc4cc(F)c(F)c(C#C)c34)c(F)c2n1)[C@@]12CCCN1C[C@H](F)C2 [Example 94, 5-ethynyl-6,7-difluoro-4-(8-fluoro-4-((1S,7R,8S)-8-fluoro-2-azabicyclo[5.1.0]oct-5-en-2-yl)-2-(((2R,7aS)-2-fluorotetrahydro-1H-pyrrolizin-7a(5H)-yl)methoxy-d2)pyrido[4,3-d]pyrimidin-7-yl)naphthalen-2-amine]	–	< 0.05
[2H]C([2H])(F)Oc1c(F)c(F)cc2cccc(-c3ncc4c(N5CCCC[C@H]6[C@H](F)[C@H]65)nc(OC([2H])([2H])[C@@]56CCCN5C[C@H](F)C6)nc4c3F)c12 [Example 95, 7-(6,7-difluoro-8-(fluoromethoxy-d2)naphthalen-1-yl)-8-fluoro-4-((1S,7R,8S)-8-fluoro-2-azabicyclo[5.1.0]octan-2-yl)-2-(((2R,7aS)-2-fluorotetrahydro-1H-pyrrolizin-7a(5H)-yl)methoxy-d2)pyrido[4,3-d]pyrimidine]	–	< 0.05
[2H]C([2H])(Oc1nc(N2CCCC[C@H]3[C@H](F)[C@H]32)c2cnc(-c3cc(N)cc4c(F)cc(F)c(C#C)c34)c(F)c2n1)[C@@]12CCCN1C[C@H](F)C2 [Example 96, 5-ethynyl-6,8-difluoro-4-(8-fluoro-4-((1S,7R,8S)-8-fluoro-2-azabicyclo[5.1.0]octan-2-yl)-2-(((2R,7aS)-2-fluorotetrahydro-1H-pyrrolizin-7a(5H)-yl)methoxy-d2)pyrido[4,3-d]pyrimidin-7-yl)naphthalen-2-amine]	–	< 0.05
[2H]C([2H])(Oc1nc(N2CCCC[C@H]3[C@H](F)[C@H]32)c2cnc(-c3cncc4ccc(F)c(C#C)c34)c(F)c2n1)[C@@]12CCCN1C[C@H](F)C2 [Example 97, 7-(5-Ethynyl-6-fluoroisoquinolin-4-yl)-8-fluoro-4-((1S,7R,8S)-8-fluoro-2-azabicyclo[5.1.0]octan-2-yl)-2-(((2R,7aS)-2-fluorotetrahydro-1H-pyrrolizin-7a(5H)-yl)methoxy-d2)pyrido[4,3-d]pyrimidine]	–	< 0.05
[2H]C([2H])(Oc1nc(N2CCCC[C@H]3[C@H](F)[C@H]32)c2cnc(-c3cncc4ccc(F)c(OC)c34)c(F)c2n1)[C@@]12CCCN1C[C@H](F)C2 [Example 98, 8-Fluoro-7-(6-fluoro-5-methoxyisoquinolin-4-yl)-4-((1S,7R,8S)-8-fluoro-2-azabicyclo[5.1.0]octan-2-yl)-2-(((2R,7aS)-2-fluorotetrahydro-1H-pyrrolizin-7a(5H)-yl)methoxy-d2)pyrido[4,3-d]pyrimidine]	–	< 0.05
[2H]C([2H])(Oc1nc(N2CCC=C[C@@H]3[C@@H](F)[C@@H]32)c2cnc(-c3cc(N)cc4cc(F)c(F)c(C#C)c34)c(F)c2n1)[C@@]12CCCN1C[C@H](F)C2 [Example 99, 5-ethynyl-6,7-difluoro-4-(8-fluoro-4-((1R,7S,8R)-8-fluoro-2-azabicyclo[5.1.0]oct-5-en-2-yl)-2-(((2R,7aS)-2-fluorotetrahydro-1H-pyrrolizin-7a(5H)-yl)methoxy-d2)pyrido[4,3-d]pyrimidin-7-yl)naphthalen-2-amine]	–	< 0.05
[2H]C([2H])(F)Oc1c(F)ccc2cc(N)cc(-c3ncc4c(N5CCCC[C@H]6[C@H](F)[C@H]65)nc(OC([2H])([2H])[C@@]56CCCN5C[C@H](F)C6)nc4c3F)c12 [Example 100, 6-Fluoro-4-(8-fluoro-4-((1S,7R,8S)-8-fluoro-2-azabicyclo[5.1.0]octan-2-yl)-2-(((2R,7aS)-2-fluorotetrahydro-1H-pyrrolizin-7a(5H)-yl)methoxy-d2)pyrido[4,3-d]pyrimidin-7-yl)-5-(fluoromethoxy-d2)naphthalen-2-amine]	–	< 0.05
[2H]C1([2H])OCCN(c2nc(OC([2H])([2H])[C@@]34CCCN3C[C@H](F)C4)nc3c(F)c(-c4cccc5ccc(F)c(C#C)c45)ncc23)[C@@H]2[C@@H](F)[C@@H]21 [Example 101, (1S,7S,8S)-2-(7-(8-ethynyl-7-fluoronaphthalen-1-yl)-8-fluoro-2-(((2R,7aS)-2-fluorotetrahydro-1H-pyrrolizin-7a(5H)-yl)methoxy-d2)pyrido[4,3-d]pyrimidin-4-yl)-8-fluoro-5-oxa-2-azabicyclo[5.1.0]octane-6,6-d2]	–	< 0.05
C#Cc1c(F)ccc2cccc(-c3ncc4c(N5CCOC[C@H]6[C@H](F)[C@H]65)nc(OC[C@@]56CCCN5CC(=C(F)F)C6)nc4c3F)c12 [Example 102, (1S,7S,8S)-2-(2-(((S)-2-(Difluoromethylene)tetrahydro-1H-pyrrolizin-7a(5H)-yl)methoxy)-7-(8-ethynyl-7-fluoronaphthalen-1-yl)-8-fluoropyrido[4,3-d]pyrimidin-4-yl)-8-fluoro-5-oxa-2-azabicyclo[5.1.0]octane]	–	< 0.05
C#Cc1c(F)ccc2cccc(-c3ncc4c(N5CCOC[C@@H]6[C@@H](F)[C@@H]65)nc(OC[C@@]56CCCN5CC(=C(F)F)C6)nc4c3F)c12 [Example 103, (1R,7R,8R)-2-(2-(((S)-2-(difluoromethylene)tetrahydro-1H-pyrrolizin-7a(5H)-yl)methoxy)-7-(8-ethynyl-7-fluoronaphthalen-1-yl)-8-fluoropyrido[4,3-d]pyrimidin-4-yl)-8-fluoro-5-oxa-2-azabicyclo[5.1.0]octane]	–	0.5 to 10
C#Cc1c(F)ccc2cccc(-c3ncc4c(N5CCOC[C@H]6[C@H](F)[C@H]65)nc(OC[C@]56CCCN5CC(=C(F)F)C6)nc4c3F)c12 [Example 104, (1S,7S,8S)-2-(2-(((R)-2-(difluoromethylene)tetrahydro-1H-pyrrolizin-7a(5H)-yl)methoxy)-7-(8-ethynyl-7-fluoronaphthalen-1-yl)-8-fluoropyrido[4,3-d]pyrimidin-4-yl)-8-fluoro-5-oxa-2-azabicyclo[5.1.0]octane]	–	< 0.05
C#Cc1c(F)c(F)cc2cccc(-c3ncc4c(N5CCOC[C@H]6[C@H](F)[C@H]65)nc(OC[C@@]56CCCN5CC(=C(F)F)C6)nc4c3F)c12 [Example 105, (1S,7S,8S)-2-(2-(((S)-2-(difluoromethylene)tetrahydro-1H-pyrrolizin-7a(5H)-yl)methoxy)-7-(8-ethynyl-6,7-difluoronaphthalen-1-yl)-8-fluoropyrido[4,3-d]pyrimidin-4-yl)-8-fluoro-5-oxa-2-azabicyclo[5.1.0]octane]	–	< 0.05
C#Cc1c(F)c(F)cc2cccc(-c3ncc4c(N5CCOC[C@@H]6[C@@H](F)[C@@H]65)nc(OC[C@@]56CCCN5CC(=C(F)F)C6)nc4c3F)c12 [Example 106, (1R,7R,8R)-2-(2-(((S)-2-(difluoromethylene)tetrahydro-1H-pyrrolizin-7a(5H)-yl)methoxy)-7-(8-ethynyl-6,7-difluoronaphthalen-1-yl)-8-fluoropyrido[4,3-d]pyrimidin-4-yl)-8-fluoro-5-oxa-2-azabicyclo[5.1.0]octane]	–	0.5 to 10

From patent publication US20250282799A1, “SUBSTITUTED PYRIDO[4,3-d]PYRIMIDINES AS KRAS MODULATORS” (Alterome Therapeutics, Inc., priority 2023, published 2025)
